# According to patent US9420813B2, “Sweetener” (AJINOMOTO CO., INC., priority 2007, dated 2016):
# *1 amine or outer side, *2 acyl side, *3 side chain or, on linkers, in order; H or OH if unused. Where no end group is shown, it is not given here. [ ]: non-standard residue; d: D form. γGlu = O=C(O)[C@H](CCC(=O)[*:2])N[*:1]; Met(O) = CS(=O)CC[C@H](N)C(=O)O; Orn = NCCC[C@H](N)C(=O)O
# Molecular target: T1, human calcium receptor (Homo sapiens, UniProt P41180)
# T1 construct: expressed in transfected cells; host or cells: Xenopus laevis oocytes injected with receptor cRNA; the gene was amplified by PCR from human kidney cDNA (Clontech) and cloned in pBR322
# T1 sequence (P41180 20-1078): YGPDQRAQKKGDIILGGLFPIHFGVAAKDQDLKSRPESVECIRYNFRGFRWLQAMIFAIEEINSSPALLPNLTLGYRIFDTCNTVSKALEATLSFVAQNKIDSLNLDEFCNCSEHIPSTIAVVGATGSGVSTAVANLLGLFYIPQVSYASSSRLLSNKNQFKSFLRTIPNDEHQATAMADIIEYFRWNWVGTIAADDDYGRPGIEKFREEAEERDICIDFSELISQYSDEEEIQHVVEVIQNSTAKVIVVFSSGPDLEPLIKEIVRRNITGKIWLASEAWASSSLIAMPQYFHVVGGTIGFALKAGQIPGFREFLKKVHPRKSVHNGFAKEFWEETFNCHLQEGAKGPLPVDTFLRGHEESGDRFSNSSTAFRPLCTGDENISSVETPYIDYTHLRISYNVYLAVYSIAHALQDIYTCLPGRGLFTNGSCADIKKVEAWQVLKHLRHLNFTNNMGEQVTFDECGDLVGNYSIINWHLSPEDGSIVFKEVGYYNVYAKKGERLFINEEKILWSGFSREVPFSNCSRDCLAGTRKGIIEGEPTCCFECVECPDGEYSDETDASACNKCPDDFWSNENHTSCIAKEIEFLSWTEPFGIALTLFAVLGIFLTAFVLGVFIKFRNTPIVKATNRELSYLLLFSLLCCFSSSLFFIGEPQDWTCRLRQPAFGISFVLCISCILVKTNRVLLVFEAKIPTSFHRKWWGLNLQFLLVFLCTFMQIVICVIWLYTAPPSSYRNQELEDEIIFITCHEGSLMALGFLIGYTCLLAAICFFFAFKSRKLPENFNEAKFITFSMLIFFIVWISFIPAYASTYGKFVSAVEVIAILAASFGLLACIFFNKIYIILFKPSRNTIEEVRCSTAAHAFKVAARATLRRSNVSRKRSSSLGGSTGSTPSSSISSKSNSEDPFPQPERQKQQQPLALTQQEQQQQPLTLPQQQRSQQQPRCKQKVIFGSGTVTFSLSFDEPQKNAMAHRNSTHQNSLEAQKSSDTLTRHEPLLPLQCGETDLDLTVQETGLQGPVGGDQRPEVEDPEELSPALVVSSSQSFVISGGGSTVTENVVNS
# Experiment: Calcium receptor-activating effect, Ca ion concentration-dependent Cl ionic current in Xenopus laevis oocyte expression system
# Type: cell-based
# Conditions: amino acid added at 10 mM
# Description: For evaluation of the calcium receptor-activating effect, Ca ion concentration-dependent Cl ionic current measuring method using a Xenopus laevis oocyte expression system was used. If activator is added to Xenopus laevis oocytes in which the calcium receptor is expressed, intracellular Ca ions increase. Then, the Ca ion concentration-dependent Cl channel opens, and the intracellular current value changes as an ionic current. By measuring the change in the intracellular current value, whether the calcium receptor-activating effect is present or not can be determined.
# Specifically, the abdomen of Xenopus laevis was opened, and an egg batch was taken out and then treated with a 1% collagenase solution at 20° C. for 2 hours to obtain individual oocytes. Into each oocyte, 50 nl of 1 μg/μl receptor cRNA or 50 nl of sterilized water per oocyte were injected by using a micro glass capillary, and the oocytes were cultured at 18° C. for 2 to 3 days. For the culture, a solution obtained by adding 2 mM of pyruvic acid, 10 U/ml of penicillin and 10 μg/ml of streptomycin to the solution in Reference Example 2 was used. After the culture, a test solution was added to the oocytes injected with cRNA or sterilized water. Electrophysiological measurement was performed by using an amplifier Geneclamp 500 (manufactured by Axon) and recording software AxoScope 9.0 (manufactured by Axon). The oocytes were voltage-clamped at −70 mV by the double electrode voltage clamp method, and the intracellular current via the Ca ion concentration-dependent Cl ion was measured. The maximum value of the intracellular currents was defined as the response current value.
# The ability of L-amino acids to activate the calcium receptor was evaluated by using the method described in Reference Example 6. That is, oocytes injected with cRNA of the calcium receptor or sterilized water were prepared, and voltage-clamped at −70 mV by the double electrode voltage clamp method. To the voltage-clamped oocytes, alanine (10 mM), arginine (10 mM), asparagine (10 mM), aspartic acid (10 mM), cysteine (10 mM), glutamine (10 mM), glutamic acid (10 mM), glycine (10 mM), histidine (10 mM), isoleucine (10 mM), leucine (10 mM), lysine (10 mM), methionine (10 mM), phenylalanine (10 mM), proline (10 mM), serine (10 mM), threonine (10 mM), tryptophan (10 mM), tyrosine (10 mM), valine (10 mM), ornithine (10 mM), taurine (10 mM) or hydroxyproline (10 mM) was added, and Ca ion concentration-dependent Cl response current was measured. […] 25, 2000, 97(9): 4814-9.
# The effect of D-cysteine for activating a calcium receptor was evaluated by using the method described in Reference Example 6. That is, oocytes injected with cRNA of the calcium receptor or sterilized water were prepared, and voltage-clamped at −70 mV by the double electrode voltage clamp method. To the voltage-clamped oocytes, D-cysteine (10 mM), L-cysteine (10 mM), D-tryptophan (10 mM) or L-tryptophan (10 mM) was added, and Ca ion concentration-dependent Cl response current was measured.
# The effect of peptide for activating calcium receptor was evaluated by using the method described in Reference Example 6. That is, oocytes injected with cRNA of the calcium receptor or sterilized water were prepared, and voltage-clamped at −70 mV by the double electrode voltage clamp method. To the voltage-clamped oocytes, γ-Glu-Cys-Gly (50 μM), γ-Glu-Cys(SNO)-Gly (50 μM), γ-Glu-Ala (50 μM), γ-Glu-Gly (500 μM), γ-Glu-Cys (50 μM), γ-Glu-Met (500 μM), γ-Glu-Thr (50 μM), γ-Glu-Val (50 μM), γ-Glu-Orn (500 μM), Asp-Gly (1 mM), Cys-Gly (1 mM), Cys-Met (1 mM), Glu-Cys (50 μM), Gly-Cys (500 μM) or Leu-Asp (1 mM) was added, and Ca ion concentration-dependent Cl response current was measured.
# The ability of a peptide to activate calcium receptor was evaluated in the same manner as that of Reference Example 10.
row,Compound,calcium receptor-activating effect (Ca ion concentration-dependent Cl response current)
1,N[C@H](CS)C(=O)O [D-cysteine],definite calcium receptor-activating effect
2,"N[C@@H](CS)C(=O)O [cysteine, reference compound]",definite calcium receptor-activating effect
3,"N[C@@H](Cc1c[nH]cn1)C(=O)O [histidine, reference compound]",definite calcium receptor-activating effect
4,"N[C@@H](Cc1ccccc1)C(=O)O [phenylalanine, reference compound]",definite calcium receptor-activating effect
5,"N[C@@H](Cc1c[nH]c2ccccc12)C(=O)O [tryptophan, reference compound]",definite calcium receptor-activating effect
6,"N[C@@H](Cc1ccc(O)cc1)C(=O)O [tyrosine, reference compound]",definite calcium receptor-activating effect

# Same assay, conditions: peptide added at 50 μM
row,Compound,effect for activating calcium receptor (Cl response current)
1,N[C@@H](CCC(=O)N[C@@H](CSN=O)C(=O)NCC(=O)O)C(=O)O [γ-Glu-Cys(SNO)-Gly],definite effect for activating calcium receptor
2,Glu-Cys,definite effect for activating calcium receptor
3,[γGlu]-Ala,definite effect for activating calcium receptor
4,[γGlu]-Cys,definite effect for activating calcium receptor
5,[γGlu]-Thr,definite effect for activating calcium receptor
6,[γGlu]-Val,definite effect for activating calcium receptor

# Same assay, conditions: peptide added at 500 μM
row,Compound,effect for activating calcium receptor (Cl response current)
1,Gly-Cys,definite effect for activating calcium receptor
2,[γGlu]-Gly,definite effect for activating calcium receptor
3,[γGlu]-Met,definite effect for activating calcium receptor
4,γ-Glu-Orn,definite effect for activating calcium receptor

# Same assay, conditions: peptide added at 1 mM
row,Compound,effect for activating calcium receptor (Cl response current)
1,Asp-Gly,definite effect for activating calcium receptor
2,Cys-Gly,definite effect for activating calcium receptor
3,Cys-Met,definite effect for activating calcium receptor
4,Leu-Asp,definite effect for activating calcium receptor

# Same assay, conditions: peptide added at 1,000 to 0.1 μM; Ca ion concentration-dependent Cl response current; oocytes voltage-clamped at −70 mV
row,Compound,Activity (lowest concentration at which current is detected)
1,[γGlu]-Gly-Gly [γ-Glu-Glγ-Gly],30 µM
2,[γGlu]-Ser-Gly,30 µM
3,[γGlu]-Val-Arg,"1,000 μM"
4,[γGlu]-Val-Asn,30 µM
5,[γGlu]-Val-Cys,10 µM
6,[γGlu]-Val-Gln,10 µM
7,[γGlu]-Val-Glu,"1,000 μM"
8,[γGlu]-Val-His,100 µM
9,[γGlu]-Val-Lys,"1,000 μM"
10,[γGlu]-Val-Met,"1,000 μM"
11,[γGlu]-Val-NH2,"1,000 μM"
12,[γGlu]-Val-Phe,30 µM
13,[γGlu]-Val-Pro,30 µM
14,[γGlu]-Val-Ser,30 µM
15,[γGlu]-Val-Thr,"1,000 μM"
16,[γGlu]-Val-Val,"1,000 μM"
17,[γGlu]-Val-[Orn],100 µM
18,[γGlu]-[Met(O)],"1,000 μM"
19,[γGlu]-[γGlu]-Val,"1,000 μM"
20,γ-Glu-Cys(S-Me)-Gly,3 µM
21,γ-Glu-Cys(S-allyl)-Gly,100 µM
22,γ-Glu-Tau,300 µM
23,γ-Glu-Val-Asp,"1,000 μM"
24,γ-Glu-Val-ol,"1,000 μM"
25,γ-Glu-t-Leu,100 µM

# Tested on: not listed separately
# Experiment: Quantitative sensory evaluation test, intensity of kokumi-imparting activity
# Conditions: sample 0.1 g/dl; control 0, glutathione 3 points; n=3
# Description: The quantitative sensory evaluation test was performed as follows. […] When a sample is acidic when dissolved, the pH was adjusted with NaOH to pH 6.8 to 7.2 before use. Because it is known that glutathione can impart kokumi to a food, glutathione was used as a comparative control. The test was performed with n=3 based on the following sensory evaluation scores: control was given 0 points, glutathione addition was given 3 points. […] It should be noted that the term “initial and middle taste” is a collective term of the initial taste and middle taste.
# The quantitative sensory evaluation test was performed as follows. […] When a sample is acidic when dissolved, the pH of the sample was adjusted with NaOH to pH 6.8 to 7.2 before use. The test was performed with n=5 based on the following sensory evaluation scores: control was given 0 point and glutathione addition was given 3 points.
# The quantitative sensory evaluation test was performed as follows. […] As for a sample which is acidic when the sample is dissolved, pH of the sample was adjusted with NaOH to pH 6.8 to 7.2 before use. The test was performed with n=12 based on the following sensory evaluation scores: control: 0 point and glutathione addition: 3 points.
Compound,"Kokumi intensity, aftertaste","Kokumi intensity, initial and middle taste"
[γGlu]-Ala,0.2 points,0.5 points
[γGlu]-Met,0.4 points,1.5 points
[γGlu]-Val,1.0 points,3.0 points

# Same assay, conditions: sample 0.1 g/dl; control 0, glutathione 3 points; n=5
Compound,"Kokumi intensity, aftertaste","Kokumi intensity, initial and middle taste"
[γGlu]-Cys,2.0 points,2.0 points
[γGlu]-Val,1.0 points,3.0 points

# Same assay, conditions: sample 0.1 g/dl; n=5
row,Compound,Taste profile
1,[γGlu]-Cys,A slightly
